Experimental data taken from PubChem BioAssay (NCI).
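Each compound was tested at five concentrations against cells in 96-well plates for 48 hours. GI50: concentration for 50% inhibition of growth. TGI marks complete inhibition of growth.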

Key:
Experiment in all cases: NCI-60 cell line screen, 48 h
SK-MEL-28 melanoma = tested on: SK-MEL-28 melanoma
HCT-15 colon = tested on: HCT-15 colon
U251 CNS = tested on: U251 CNS
SW-620 colon = tested on: SW-620 colon
RXF 393 renal = tested on: RXF 393 renal
NCI-H226 lung = tested on: NCI-H226 lung
IGROV1 ovarian = tested on: IGROV1 ovarian
OVCAR-4 ovarian = tested on: OVCAR-4 ovarian
SR leukemia = tested on: SR leukemia
EKVX NSCLC = tested on: EKVX NSCLC
HL-60(TB) leukemia = tested on: HL-60(TB) leukemia
OVCAR-5 ovarian = tested on: OVCAR-5 ovarian
MCF7 breast = tested on: MCF7 breast
HOP-62 NSCLC = tested on: HOP-62 NSCLC
HCT-116 colon = tested on: HCT-116 colon
SK-MEL-5 melanoma = tested on: SK-MEL-5 melanoma
UACC-62 melanoma = tested on: UACC-62 melanoma
A498 renal = tested on: A498 renal
LOX IMVI melanoma = tested on: LOX IMVI melanoma
MDA-MB-231 breast = tested on: MDA-MB-231 breast
COLO 205 colon = tested on: COLO 205 colon
T-47D breast = tested on: T-47D breast
SNB-19 CNS = tested on: SNB-19 CNS
SN12C renal = tested on: SN12C renal
HT29 colon = tested on: HT29 colon
NCI-H23 lung = tested on: NCI-H23 lung
UO-31 renal = tested on: UO-31 renal
OVCAR-8 ovarian = tested on: OVCAR-8 ovarian
TK-10 renal = tested on: TK-10 renal
MALME-3M melanoma = tested on: MALME-3M melanoma
K-562 leukemia = tested on: K-562 leukemia
KM12 colon = tested on: KM12 colon
RPMI-8226 leukemia = tested on: RPMI-8226 leukemia
SK-MEL-2 melanoma = tested on: SK-MEL-2 melanoma
MOLT-4 leukemia = tested on: MOLT-4 leukemia
M14 melanoma = tested on: M14 melanoma
BT-549 breast = tested on: BT-549 breast
SF-268 CNS = tested on: SF-268 CNS
ACHN renal = tested on: ACHN renal
786-0 renal = tested on: 786-0 renal
HS 578T breast = tested on: HS 578T breast
SNB-75 CNS = tested on: SNB-75 CNS
SF-539 CNS = tested on: SF-539 CNS
HOP-92 NSCLC = tested on: HOP-92 NSCLC
NCI-H460 lung = tested on: NCI-H460 lung
OVCAR-3 ovarian = tested on: OVCAR-3 ovarian
UACC-257 melanoma = tested on: UACC-257 melanoma
A549 NSCLC = tested on: A549 NSCLC
PC-3 prostate = tested on: PC-3 prostate
MDA-MB-435 = tested on: MDA-MB-435
NCI-H522 lung = tested on: NCI-H522 lung
DU-145 prostate = tested on: DU-145 prostate
CAKI-1 renal = tested on: CAKI-1 renal
SF-295 CNS = tested on: SF-295 CNS
NCI/ADR-RES ovarian = tested on: NCI/ADR-RES ovarian
HCC-2998 colon = tested on: HCC-2998 colon
CCRF-CEM leukemia = tested on: CCRF-CEM leukemia
SK-OV-3 ovarian = tested on: SK-OV-3 ovarian

CCN(CC)c1nc(-c2ccc(Cl)cc2Cl)nc2ccccc12 was tested, and the GI50 (SK-MEL-28 melanoma) was 31.8 µM, the TGI (SK-MEL-28 melanoma) was greater than 100 µM and the GI50 (HCT-15 colon) was 19.3 µM. The TGI (HCT-15 colon) was 48.9 µM, the GI50 (U251 CNS) was 18 µM and the TGI (U251 CNS) was 37.2 µM. The GI50 (SW-620 colon) was 15.5 µM, the TGI (SW-620 colon) was 34.4 µM and the GI50 (RXF 393 renal) was 17.2 µM. It also gave a TGI (RXF 393 renal) of 42.5 µM, a GI50 (NCI-H226 lung) of 12.4 µM and a TGI (NCI-H226 lung) of 31.2 µM. For the same molecule, the GI50 (IGROV1 ovarian) was 25.9 µM, the TGI (IGROV1 ovarian) was greater than 100 µM and the GI50 (OVCAR-4 ovarian) was 51.6 µM. The TGI (OVCAR-4 ovarian) was greater than 100 µM, the GI50 (SR leukemia) was 8.68 µM and the TGI (SR leukemia) was greater than 53.2 µM. For the same molecule, the GI50 (EKVX NSCLC) was 0.333 µM, the TGI (EKVX NSCLC) was 5.05 µM and the GI50 (HL-60(TB) leukemia) was 26.2 µM. The TGI (HL-60(TB) leukemia) was greater than 100 µM, the GI50 (OVCAR-5 ovarian) was 26.1 µM and the TGI (OVCAR-5 ovarian) was greater than 68.1 µM. The GI50 (MCF7 breast) was 22.2 µM, the TGI (MCF7 breast) was greater than 68 µM and the GI50 (HOP-62 NSCLC) was 17.3 µM. The TGI (HOP-62 NSCLC) was 35.6 µM, the GI50 (HCT-116 colon) was 14.8 µM and the TGI (HCT-116 colon) was 29 µM. It also gave a GI50 (SK-MEL-5 melanoma) of 17.8 µM, a TGI (SK-MEL-5 melanoma) of 33.3 µM and a GI50 (UACC-62 melanoma) of 13.7 µM. It also gave a TGI (UACC-62 melanoma) of 41.3 µM, a GI50 (A498 renal) of 0.702 µM and a TGI (A498 renal) of 7.63 µM. For the same molecule, the GI50 (LOX IMVI melanoma) was 17.1 µM, the TGI (LOX IMVI melanoma) was 36 µM and the GI50 (MDA-MB-231 breast) was 4.2 µM. For the same molecule, the TGI (MDA-MB-231 breast) was 23.2 µM, the GI50 (COLO 205 colon) was 19.5 µM and the TGI (COLO 205 colon) was 48.8 µM. The GI50 (T-47D breast) was 18.1 µM, the TGI (T-47D breast) was 49.6 µM and the GI50 (SNB-19 CNS) was 40.8 µM. It also gave a TGI (SNB-19 CNS) greater than 100 µM, a GI50 (SN12C renal) of 17.2 µM and a TGI (SN12C renal) of 46.2 µM. The GI50 (HT29 colon) was 37.6 µM, the TGI (HT29 colon) was greater than 100 µM and the GI50 (NCI-H23 lung) was 22.8 µM. The TGI (NCI-H23 lung) was 62.8 µM, the GI50 (UO-31 renal) was 24.9 µM and the TGI (UO-31 renal) was greater than 90.5 µM. The GI50 (OVCAR-8 ovarian) was 31.9 µM, the TGI (OVCAR-8 ovarian) was greater than 100 µM and the GI50 (TK-10 renal) was 23.8 µM. For the same molecule, the TGI (TK-10 renal) was 63.3 µM, the GI50 (MALME-3M melanoma) was 18.9 µM and the TGI (MALME-3M melanoma) was 49.7 µM. For the same molecule, the GI50 (K-562 leukemia) was 30.8 µM, the TGI (K-562 leukemia) was greater than 100 µM and the GI50 (KM12 colon) was 20.2 µM. The TGI (KM12 colon) was 59.8 µM, the GI50 (RPMI-8226 leukemia) was 32.1 µM and the TGI (RPMI-8226 leukemia) was greater than 100 µM. The GI50 (SK-MEL-2 melanoma) was greater than 41.8 µM, the TGI (SK-MEL-2 melanoma) was greater than 67.7 µM and the GI50 (MOLT-4 leukemia) was 42.9 µM. The TGI (MOLT-4 leukemia) was greater than 100 µM, the GI50 (M14 melanoma) was 18 µM and the TGI (M14 melanoma) was 37.9 µM. For the same molecule, the GI50 (BT-549 breast) was 25.4 µM, the TGI (BT-549 breast) was 54.1 µM and the GI50 (SF-268 CNS) was 23.1 µM. It also gave a TGI (SF-268 CNS) greater than 68.8 µM, a GI50 (ACHN renal) of 15.8 µM and a TGI (ACHN renal) of 50.4 µM. For the same molecule, the GI50 (786-0 renal) was 22.2 µM, the TGI (786-0 renal) was 61.9 µM and the GI50 (HS 578T breast) was 8.82 µM. For the same molecule, the TGI (HS 578T breast) was 35.1 µM, the GI50 (SNB-75 CNS) was 43.9 µM and the TGI (SNB-75 CNS) was greater than 100 µM. It also gave a GI50 (SF-539 CNS) of 20.3 µM, a TGI (SF-539 CNS) of 41.9 µM and a GI50 (HOP-92 NSCLC) of 22 µM. It also gave a TGI (HOP-92 NSCLC) of 93.4 µM, a GI50 (NCI-H460 lung) of 23.9 µM and a TGI (NCI-H460 lung) greater than 79.5 µM. The GI50 (OVCAR-3 ovarian) was 15.7 µM, the TGI (OVCAR-3 ovarian) was 47.2 µM and the GI50 (UACC-257 melanoma) was 17.3 µM. The TGI (UACC-257 melanoma) was 50.7 µM, the GI50 (A549 NSCLC) was 17.1 µM and the TGI (A549 NSCLC) was 57.2 µM. It also gave a GI50 (PC-3 prostate) of 24.1 µM, a TGI (PC-3 prostate) greater than 63.3 µM and a GI50 (MDA-MB-435) of 18.7 µM. The TGI (MDA-MB-435) was 48.3 µM, the GI50 (NCI-H522 lung) was 29.2 µM and the TGI (NCI-H522 lung) was greater than 74.9 µM. For the same molecule, the GI50 (DU-145 prostate) was 13.6 µM, the TGI (DU-145 prostate) was greater than 58.9 µM and the GI50 (CAKI-1 renal) was 16.5 µM. It also gave a TGI (CAKI-1 renal) of 62.4 µM, a GI50 (SF-295 CNS) of 22.8 µM and a TGI (SF-295 CNS) of 62.4 µM. The GI50 (NCI/ADR-RES ovarian) was 23 µM, the TGI (NCI/ADR-RES ovarian) was greater than 71.1 µM and the GI50 (HCC-2998 colon) was 16.7 µM. It also gave a TGI (HCC-2998 colon) of 31.7 µM, a GI50 (CCRF-CEM leukemia) of 10.4 µM and a TGI (CCRF-CEM leukemia) greater than 100 µM. For the same molecule, the GI50 (SK-OV-3 ovarian) was 26.5 µM and the TGI (SK-OV-3 ovarian) was greater than 79.9 µM.
